Like-named read-outs stand apart in the source and are kept apart here.
How the values were obtained:
[1] = system: Key Broadleaf Weed and Crop Species; assay: Post-emergent Test II herbicidal activity (Table 15); assay type: in vivo; conditions: post-emergence, 336 h, 14 d; for pest or weed control at 35 g/ha: 35 g ai/ha; for pest or weed control at 70 g/ha: 70 g ai/ha; for pest or weed control at 140 g/ha: 140 g ai/ha
Procedure, shortened: (§1)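 Visual injury rating (0 = none, 100% = complete kill) made 14 d after treatment, relative to untreated plants. Compounds in an acetone/DMSO/aqueous crop-oil/surfactant spray, at top rate and serial 1/2×-1/16× rates, were applied at 187 L/ha overhead to first-second true leaf plants raised 7-21 d in greenhouse.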

[2] = system: Key Grass and Sedge Weeds as well as Grass Crops; assay: Post-emergent Test II herbicidal activity (Table 16); assay type: in vivo; conditions: post-emergence, 336 h, 14 d; for pest or weed control at 35 g/ha: 35 g ai/ha; for pest or weed control at 70 g/ha: 70 g ai/ha; for pest or weed control at 140 g/ha: 140 g ai/ha
Procedure, shortened: as §1

[3] = Abutilon theophrasti, velvetleaf (Abutilon theophrasti), read-out: Visual Growth Reduction (%) 14 Days After Application, ABUTH
[4] = Amaranthus retroflexus, redroot pigweed (Amaranthus retroflexus), read-out: Visual Growth Reduction (%) 14 Days After Application, AMARE
[5] = Brassica napus, oilseed rape, canola (Brassica napus), read-out: Visual Growth Reduction (%) 14 Days After Application, BRSNN
[6] = Chenopodium album, lambsquarters (Chenopodium album), read-out: Visual Growth Reduction (%) 14 Days After Application, CHEAL
[7] = Euphorbia heterophylla, wild poinsettia (Euphorbia heterophylla), read-out: Visual Growth Reduction (%) 14 Days After Application, EPHHL
[8] = Helianthus annuus, sunflower (Helianthus annuus), read-out: Visual Growth Reduction (%) 14 Days After Application, HELAN
[9] = Cyperus esculentus, yellow nutsedge (Cyperus esculentus), read-out: Visual Growth Reduction (%) 14 Days After Application, CYPES
[10] = Echinochloa crus-galli, barnyardgrass (Echinochloa crus-galli), read-out: Visual Growth Reduction (%) 14 Days After Application, ECHCG
[11] = Oryza sativa, rice (Oryza sativa), read-out: Visual Growth Reduction (%) 14 Days After Application, ORYSA
[12] = Setaria faberi, giant foxtail (Setaria faberi), read-out: Visual Growth Reduction (%) 14 Days After Application, SETFA
[13] = Triticum aestivum, wheat, spring (Triticum aestivum), read-out: Visual Growth Reduction (%) 14 Days After Application, TRZAS
[14] = Zea mays, maize, corn (Zea mays), read-out: Visual Growth Reduction (%) 14 Days After Application, ZEAMX

SMILES	pest or weed control at 35 g/ha [1, 3]	pest or weed control at 70 g/ha [1, 3]	pest or weed control at 140 g/ha [1, 3]	pest or weed control at 35 g/ha [1, 4]	pest or weed control at 70 g/ha [1, 4]	pest or weed control at 140 g/ha [1, 4]	pest or weed control at 35 g/ha [1, 5]	pest or weed control at 70 g/ha [1, 5]	pest or weed control at 140 g/ha [1, 5]	pest or weed control at 35 g/ha [1, 6]	pest or weed control at 70 g/ha [1, 6]	pest or weed control at 140 g/ha [1, 6]	pest or weed control at 35 g/ha [1, 7]	pest or weed control at 70 g/ha [1, 7]	pest or weed control at 140 g/ha [1, 7]	pest or weed control at 35 g/ha [1, 8]	pest or weed control at 70 g/ha [1, 8]	pest or weed control at 140 g/ha [1, 8]	pest or weed control at 35 g/ha [2, 9]	pest or weed control at 70 g/ha [2, 9]	also measured
COC(=O)c1nc(-c2ccc3occc3c2)nc(N)c1OC [Compound 2.06]	0 to 29%	0 to 29%	75 to 84%	75 to 84%	95 to 100%	95 to 100%	30 to 44%	60 to 74%	85 to 94%	60 to 74%	75 to 84%	85 to 94%	30 to 44%	75 to 84%	95 to 100%	60 to 74%	75 to 84%	85 to 94%	0 to 29%	0 to 29%	pest or weed control at 140 g/ha [2, 9]: 0 to 29%; pest or weed control at 35 g/ha [2, 10]: 0 to 29%; pest or weed control at 70 g/ha [2, 10]: 45 to 59%; pest or weed control at 140 g/ha [2, 10]: 95 to 100%; pest or weed control at 35 g/ha [2, 11]: 0 to 29%; pest or weed control at 70 g/ha [2, 11]: 0 to 29%; pest or weed control at 140 g/ha [2, 11]: 0 to 29%; pest or weed control at 35 g/ha [2, 12]: 0 to 29%; pest or weed control at 70 g/ha [2, 12]: 0 to 29%; pest or weed control at 140 g/ha [2, 12]: 0 to 29%; pest or weed control at 35 g/ha [2, 13]: 0 to 29%; pest or weed control at 70 g/ha [2, 13]: 0 to 29%; pest or weed control at 140 g/ha [2, 13]: 0 to 29%; pest or weed control at 35 g/ha [2, 14]: 0 to 29%; pest or weed control at 70 g/ha [2, 14]: 0 to 29%; pest or weed control at 140 g/ha [2, 14]: 0 to 29%
Nc1c(F)c(-c2ccc3cc[nH]c3c2F)nc(C(=O)O)c1Cl [Compound 1.16, 4-Amino-3-chloro-5-fluoro-6-(7-fluoro-1H-indol-6-yl)picolinic acid]	85 to 94%	95 to 100%	95 to 100%	95 to 100%	95 to 100%	95 to 100%	95 to 100%	95 to 100%	95 to 100%	95 to 100%	95 to 100%	95 to 100%	95 to 100%	95 to 100%	95 to 100%	95 to 100%	95 to 100%	85 to 94%	0 to 29%	60 to 74%	pest or weed control at 140 g/ha [2, 9]: 85 to 94%; pest or weed control at 35 g/ha [2, 10]: 75 to 84%; pest or weed control at 70 g/ha [2, 10]: 85 to 94%; pest or weed control at 140 g/ha [2, 10]: 95 to 100%; pest or weed control at 35 g/ha [2, 11]: 30 to 44%; pest or weed control at 70 g/ha [2, 11]: 60 to 74%; pest or weed control at 140 g/ha [2, 11]: 60 to 74%; pest or weed control at 35 g/ha [2, 12]: 60 to 74%; pest or weed control at 70 g/ha [2, 12]: 75 to 84%; pest or weed control at 140 g/ha [2, 12]: 85 to 94%; pest or weed control at 35 g/ha [2, 13]: 30 to 44%; pest or weed control at 70 g/ha [2, 13]: 60 to 74%; pest or weed control at 140 g/ha [2, 13]: 60 to 74%; pest or weed control at 35 g/ha [2, 14]: 0 to 29%; pest or weed control at 70 g/ha [2, 14]: 30 to 44%; pest or weed control at 140 g/ha [2, 14]: 60 to 74%
COC(=O)c1nc(-c2ccc(Cl)c3cc[nH]c23)c(F)c(N)c1Cl [Compound 1.46]	0 to 29%	0 to 29%	0 to 29%	0 to 29%	0 to 29%	60 to 74%	0 to 29%	0 to 29%	0 to 29%	75 to 84%	85 to 94%	95 to 100%	0 to 29%	0 to 29%	0 to 29%	0 to 29%	30 to 44%	45 to 59%	0 to 29%	0 to 29%	pest or weed control at 140 g/ha [2, 9]: 0 to 29%; pest or weed control at 35 g/ha [2, 10]: 0 to 29%; pest or weed control at 70 g/ha [2, 10]: 0 to 29%; pest or weed control at 140 g/ha [2, 10]: 0 to 29%; pest or weed control at 35 g/ha [2, 11]: 0 to 29%; pest or weed control at 70 g/ha [2, 11]: 0 to 29%; pest or weed control at 140 g/ha [2, 11]: 0 to 29%; pest or weed control at 35 g/ha [2, 12]: 0 to 29%; pest or weed control at 70 g/ha [2, 12]: 0 to 29%; pest or weed control at 140 g/ha [2, 12]: 0 to 29%; pest or weed control at 35 g/ha [2, 13]: 0 to 29%; pest or weed control at 70 g/ha [2, 13]: 0 to 29%; pest or weed control at 140 g/ha [2, 13]: 0 to 29%; pest or weed control at 35 g/ha [2, 14]: 0 to 29%; pest or weed control at 70 g/ha [2, 14]: 0 to 29%; pest or weed control at 140 g/ha [2, 14]: 0 to 29%

Reference: patent publication US20170050957A1, “4-AMINO-6-(HETEROCYCLIC)PICOLINATES AND 6-AMINO-2-(HETEROCYCLIC)PYRIMIDINE-4-CARBOXYLATES AND THEIR USE AS HERBICIDES” (Dow AgroSciences LLC, priority 2013, published 2017)
